Source: the supplement of paper PMC11061612

Tests used:
Experiment in all cases: Bliss excess, mean over the matrix (fraction); higher = more synergy
[1] = tested on: L-1236 (Hodgkin's Lymphoma)
Method in brief: (§1)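 Cell lines grown in DMEM/F12 or RPMI with 10% FBS were plated in 1536-well plates and held 24 hours at 37°C, 5% CO2 before 72 hours of exposure to two-drug dose matrices, with DMSO typically at 0.2%. CellTiter-Glo 2.0 luminescence gave viability, which was converted to inhibition. Vehicle wells were set to 0 and blank wells to 1. Combination Emax is the second-highest inhibition in the matrix, and Bliss excess is the observed combination effect minus the expected EA + EB − EA·EB, where EA and EB are the single-agent effects.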

[2] = tested on: PSN1 (Pancreatic Carcinoma)
Method in brief: as §1

[3] = tested on: MFE-280 (Endometrial Carcinoma)
Method in brief: as §1

[4] = tested on: NCI-H23 (Lung Adenocarcinoma)
Method in brief: as §1

A2058 (Melanoma) = tested on: A2058 (Melanoma)
Method in brief: as §1

[5] = tested on: OVMIU (Ovarian Carcinoma)
Method in brief: as §1

[6] = tested on: SHP-77 (Small Cell Lung Carcinoma)
Method in brief: as §1

[7] = tested on: GP5d (Colorectal Carcinoma)
Method in brief: as §1

[8] = tested on: 23132-87 (Gastric Carcinoma)
Method in brief: as §1

GB-1 (Glioblastoma) = tested on: GB-1 (Glioblastoma)
Method in brief: as §1

SF539 (Glioblastoma) = tested on: SF539 (Glioblastoma)
Method in brief: as §1

[9] = tested on: NCI-H446 (Small Cell Lung Carcinoma)
Method in brief: as §1

WM278 (Melanoma) = tested on: WM278 (Melanoma)
Method in brief: as §1

[10] = tested on: LXF-289 (Lung Adenocarcinoma)
Method in brief: as §1

[11] = tested on: HCT-15 (Colorectal Carcinoma)
Method in brief: as §1

[12] = tested on: LK-2 (Squamous Cell Lung Carcinoma)
Method in brief: as §1

[13] = tested on: VAL (B-Cell Non-Hodgkin's Lymphoma)
Method in brief: as §1

IST-MES1 (Mesothelioma) = tested on: IST-MES1 (Mesothelioma)
Method in brief: as §1

[14] = tested on: RKN (Other Solid Carcinomas)
Method in brief: as §1

[15] = tested on: MKN45 (Gastric Carcinoma)
Method in brief: as §1

Row | SMILES | Bliss excess [1] | Bliss excess [2] | Bliss excess [3] | Bliss excess [4] | Bliss excess (A2058 (Melanoma)) | Bliss excess [5] | Bliss excess [6] | Bliss excess [7] | Bliss excess [8] | Bliss excess (GB-1 (Glioblastoma)) | Bliss excess (SF539 (Glioblastoma)) | Bliss excess [9] | Bliss excess (WM278 (Melanoma)) | Bliss excess [10] | Bliss excess [11] | Bliss excess [12] | Bliss excess [13] | Bliss excess (IST-MES1 (Mesothelioma)) | Bliss excess [14] | Bliss excess [15]
1 | CC1(C)CCC(CN2CCN(c3ccc(C(=O)NS(=O)(=O)c4ccc(NCC5CCOCC5)c([N+](=O)[O-])c4)c(Oc4cnc5[nH]ccc5c4)c3)CC2)=C(c2ccc(Cl)cc2)C1 [Venetoclax] + Cc1cc2ncnn2cc1Nc1ncc2c(n1)n(C1CCOCC1)c(=O)n2C [AZD7648] (first compound max 1 µM, 7x7, partner max 10 µM) | -0.0274 | -0.0534 | -0.0773 | -0.0172 | 0.007 | -0.109 | -0.0088 | -0.0119 | -0.0008 | -0.0591 | 0.0069 | -0.0181 | -0.0476 | -0.0935 | -0.0043 | 0.0102 | 0.012 | -0.0284 | -0.062 | -0.0576
2 | CC1(C)CCC(CN2CCN(c3ccc(C(=O)NS(=O)(=O)c4ccc(NCC5CCOCC5)c([N+](=O)[O-])c4)c(Oc4cnc5[nH]ccc5c4)c3)CC2)=C(c2ccc(Cl)cc2)C1 [Venetoclax] + Cn1cnc2c(F)c(Nc3ccc(Br)cc3Cl)c(C(=O)NOCCO)cc21 [Selumetinib] (first compound max 1 µM, 7x7, partner max 3 µM) | -0.0319 | -0.0262 | -0.0138 | -0.0208 | -0.005 | -0.0641 | 0.105 | 0.01 | -0.0507 | -0.0366 | 0.0003 | -0.0372 | -0.0319 | -0.0312 | -0.0231 | -0.0073 | -0.0069 | -0.0381 | -0.0034 | -0.0574
